# Reference: PMC4956724, “Assessing the reliability of uptake and elimination kinetics modelling approaches for estimating bioconcentration factors in the freshwater invertebrate, Gammarus pulex” (The Science of the Total Environment, 2016)
# Read-outs that look alike come from different tables or passages of the source.
# Key:
# [1] = test system: G. pulex exoskeleton; conditions: both, Gammarus pulex, in vivo, pH 8.2
# [2] = test system: Gammarus pulex; assay: Toxicokinetic exposure (48 h uptake, 48 h depuration) of radio-labelled pharmaceuticals, first-order one-compartment model (OECD 305); conditions: for BCF, Simultaneous BCF: kinetic BCF (k1/k2); for BCF, Simultaneous BCF / k2 (elimination rate constant), Simultaneous BCF / k1 (uptake rate constant), Simultaneous BCF: simultaneous method; for BCF, Sequential BCF a / BCF, Sequential BCF b: kinetic BCF; for BCF, Sequential BCF a / k1, Sequential BCF a / k2, Sequential BCF a: sequential using curve fitting method; for BCF, Sequential BCF b / k1, Sequential BCF b / k2, Sequential BCF b: sequential using linear regression; for k2 (elimination rate constant), Simultaneous BCF / k1 (uptake rate constant), Simultaneous BCF: 1 μg·L^− 1 (diclofenac, ibuprofen 10 μg·L^− 1), 15 °C, pH 8.2
# [3] = test system: G. pulex; conditions: in vivo
# [4] = test system: G. pulex; conditions: cited from earlier work
# [5] = test system: G. pulex; assay: Re-examination of raw toxicokinetic data from Ashauer et al. (2010) using the OECD 305 modelling approach; conditions: 2010 re-modelled
# [6] = test system: G. pulex; parameters: method as in Meredith-Williams et al., 2012; conditions: ref Meredith-Williams et al., 2012; cited from earlier work
# [7] = Control wells without G. pulex: loss of compound by sorption to the walls of culture plates; format: physicochemical; conditions: control wells with exposure media only
Structure (SMILES),"BCF, Sequential BCF ([3]; Gammarus pulex)","BCF, Simultaneous BCF ([3]; Gammarus pulex) [L kg^− 1]","k1, Sequential BCF ([3]; Gammarus pulex) [L kg^− 1 day^− 1]","k1, Simultaneous BCF ([3]; Gammarus pulex) [L kg^− 1 day^− 1]","k2, Sequential BCF ([3]; Gammarus pulex) [day^− 1]","k2, Simultaneous BCF ([3]; Gammarus pulex) [day^− 1]",BAF ([4]; in vivo),further results
"O=C(O)Cc1ccccc1Nc1c(Cl)cccc1Cl [Diclofenac, diclofenac]",,,,,,,,"Maximum concentration sorbed to exoskeleton [1]: 18%; Mean Compound Mass per Animal [1]: 2070 pg; Total Mass Compound on exoskeleton [1]: 368 (n=4) pg; BCF, Simultaneous BCF [2]: 14 L kg^− 1; BCF, Sequential BCF a [2]: 27 L kg^− 1; BCF, Sequential BCF b [2]: 21 L kg^− 1; k1, Sequential BCF a [2]: 0.253 L kg^− 1 day^− 1; k2, Sequential BCF a [2]: 0.009 day^− 1; k1, Sequential BCF b [2]: 0.269 L kg^− 1 day^− 1; k2, Sequential BCF b [2]: 0.013 day^− 1; k2 (elimination rate constant), Simultaneous BCF [2]: 0.020 day^− 1"
"COCCc1ccc(OCC(O)CNC(C)C)cc1 (centres unmarked) [Metoprolol, metoprolol]",,,,,,,,Mean Compound Mass per Animal [1]: 74 pg; Total Mass Compound on exoskeleton [1]: 14 (n=2) pg
"Nc1ccc(Cl)cc1Cl [2,4-Dichloroaniline]",179 L kg^− 1,50,70,140,0.392,2.830,56,
Clc1c(Cl)c(Cl)c(Cl)c(Cl)c1Cl [Hexachlorobenzene],4160 L kg^− 1,2505,631,553,0.152,0.221,,
"Oc1cc(Cl)c(Cl)cc1Cl [2,4,5-Trichlorophenol]",8327 L kg^− 1,3729,1091,941,0.131,0.252,2635,
C=CC(=O)OCC [Ethylacrylate],,,,,,,,"BAF ([4]; ref Ashauer et al. (2010)): 87; BCF, Sequential BCF ([5]; sequential method): 331 L kg^− 1; k1, Sequential BCF ([5]; sequential method): 67 L kg^− 1 day^− 1; k2, Sequential BCF ([5]; sequential method): 0.204 day^− 1; BCF, Simultaneous BCF ([5]; simultaneous method): 69 L kg^− 1; k1, Simultaneous BCF ([5]; simultaneous method): 110 L kg^− 1 day^− 1; k2, Simultaneous BCF ([5]; simultaneous method): 1.594 day^− 1"
"Clc1cccc(Cl)c1Cl [1,2,3-Trichlorobenzene]",351 L kg^− 1,107,167,1142,0.475,10.648,191,
"CC(C)NCC(O)COc1cccc2ccccc12 (centres unmarked) [Propranolol, propranolol]",,,,,,,,Mean Compound Mass per Animal [1]: 336 pg; Total Mass Compound on exoskeleton [1]: 44 (n=1) pg
O=[N+]([O-])c1ccc(CCl)cc1 [4-Nitrobenzyl chloride],214 L kg^− 1,147,259,666,1.212,4.540,185,
CNC(=O)Oc1cccc2c1OC(C)(C)C2 [Carbofuran],72 L kg^− 1,68,10,10,0.140,0.146,65,
CNCCC(Oc1ccc(C(F)(F)F)cc1)c1ccccc1 (centres unmarked) [fluoxetine],,,,,,,,"BCF [6]: 185,900"
"CN(C)CCCN1c2ccccc2CCc2ccccc21 [Imipramine, imipramine]",,,,,,,,"loss by sorption to walls of exposure well ([7]; within 2 h): 27%; loss by sorption to walls of exposure well ([7]; within 48 h): 39%; Maximum concentration sorbed to exoskeleton [1]: 3%; Mean Compound Mass per Animal [1]: 1921 pg; Total Mass Compound on exoskeleton [1]: 50 (n=2) pg; increase in BCF, sequential versus simultaneous method ([2]; in vivo): > 10 fold; BCF, Simultaneous BCF [2]: 212 L kg^− 1; BCF, Sequential BCF a [2]: 3811 L kg^− 1; BCF, Sequential BCF b [2]: 4533 L kg^− 1; BCF on average between curve fitting and linear regression approaches ([2]; sequential method): ~ 4200; k1, Sequential BCF a [2]: 1.361 L kg^− 1 day^− 1; k1, Sequential BCF b [2]: 1.360 L kg^− 1 day^− 1; k1 (uptake rate constant), Simultaneous BCF [2]: 1.408 L kg^− 1 day^− 1; k2 (elimination rate constant), Simultaneous BCF [2]: 0.007 day^− 1"
O=[N+]([O-])NC1=NCCN1Cc1ccc(Cl)nc1 [Imidacloprid],13 L kg^− 1,7,2,2,0.175,0.265,7,
CNC(=O)O/N=C/C(C)(C)SC [Aldicarb],3 L kg^− 1,2,3,16,0.936,10.419,2,
"CNC(=C[N+](=O)[O-])NCCSCc1ccc(CN(C)C)o1 [Ranitidine, ranitidine]",,,,,,,,Mean Compound Mass per Animal [1]: 238 pg; Total Mass Compound on exoskeleton [1]: 58 (n=1) pg
CCCCCCCCn1sc(Cl)c(Cl)c1=O [Sea nine],,,,,,,1732,"BCF, Sequential BCF [3]: 7696 L kg^− 1; BCF, Simultaneous BCF [3]: 2491 L kg^− 1; k1, Sequential BCF [3]: 950 L kg^− 1 day^− 1; k1, Simultaneous BCF [3]: 755 L kg^− 1 day^− 1; k2, Sequential BCF [3]: 0.123 day^− 1; k2, Simultaneous BCF [3]: 0.303 day^− 1"
"CC(C)(C)NCC(O)c1cc(O)cc(O)c1 (centres unmarked) [Terbutaline, terbutaline]",,,,,,,,"BCF, Simultaneous BCF [2]: 12 L kg^− 1; BCF, Sequential BCF a [2]: 22 L kg^− 1; BCF, Sequential BCF b [2]: 19 L kg^− 1; k1, Sequential BCF a [2]: 0.135 L kg^− 1 day^− 1; k2, Sequential BCF a [2]: 0.006 day^− 1; k1, Sequential BCF b [2]: 0.117 L kg^− 1 day^− 1; k2, Sequential BCF b [2]: 0.006 day^− 1; k1 (uptake rate constant), Simultaneous BCF [2]: 0.136 L kg^− 1 day^− 1; k2 (elimination rate constant), Simultaneous BCF [2]: 0.011 day^− 1"
"COc1ccc(CC(C)NCC(O)c2ccc(O)c(NC=O)c2)cc1 (centres unmarked) [Formoterol, formoterol]",,,,,,,,"BCF, Simultaneous BCF [2]: 14 L kg^− 1; BCF, Sequential BCF a [2]: 18 L kg^− 1; BCF, Sequential BCF b [2]: 33 L kg^− 1; k1, Sequential BCF a [2]: 0.451 L kg^− 1 day^− 1; k2, Sequential BCF a [2]: 0.025 day^− 1; k1, Sequential BCF b [2]: 0.357 L kg^− 1 day^− 1; k2, Sequential BCF b [2]: 0.011 day^− 1; k1 (uptake rate constant), Simultaneous BCF [2]: 0.408 L kg^− 1 day^− 1; k2 (elimination rate constant), Simultaneous BCF [2]: 0.029 day^− 1"
"Oc1ccc(Cl)cc1Cl [2,4-Dichlorophenol]","72,728 L kg^− 1",9050,750,600,0.010,0.066,4466,
CCOC(=O)CC(SP(=S)(OC)OC)C(=O)OCC (centres unmarked) [Malathion],212 L kg^− 1,120,80,86,0.378,0.721,114,
CCOP(=S)(OCC)Oc1cc(C)nc(C(C)C)n1 [Diazinon],101 L kg^− 1,77,161,276,1.590,3.569,82,
